Drawing on ChEMBL document CHEMBL5465560, “Selectivity Literature for EUbOPEN Chemogenomic Library” (2024), this text covers % of control and % of inhibition for eight compounds.

The target in experiment [1] is Cyclin-dependent kinase 3 (Homo sapiens) (UniProt Q00526). In words: Selectivity interaction (Ambit KINOMEscan and KiNATiv profiling in Jurkat cells) EUB0000090b CDK3. It counts as cell-based. The note with it: at 1 µM.
Experiment [2] deals with Serine/threonine-protein kinase pim-1 (Homo sapiens, UniProt P11309). Put plainly: Selectivity interaction (Ambit KINOMEscan and KiNATiv profiling in Jurkat cells) EUB0000090b PIM1. To be noted: at 1 µM. It counts as cell-based.
Serine/threonine-protein kinase pim-1, sequence (P11309 whole entry, looked up): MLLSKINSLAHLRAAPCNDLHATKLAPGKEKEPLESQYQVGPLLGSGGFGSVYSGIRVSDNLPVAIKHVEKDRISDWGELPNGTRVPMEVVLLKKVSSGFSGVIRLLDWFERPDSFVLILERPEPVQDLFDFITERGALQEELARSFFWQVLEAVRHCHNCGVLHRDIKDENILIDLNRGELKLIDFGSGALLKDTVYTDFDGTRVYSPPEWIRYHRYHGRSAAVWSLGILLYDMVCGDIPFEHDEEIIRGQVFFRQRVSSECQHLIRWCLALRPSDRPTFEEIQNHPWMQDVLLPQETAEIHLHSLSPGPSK
Experiment [3] has as its target Activin receptor type-1-like (Homo sapiens) (UniProt P37023). In words: Selectivity interaction (KinomeScan (DiscoverX)) EUB0001049a ACVRL1. The note with it: at 1 µM.
Experiment [4] has as its target Phosphatidylinositol 4-kinase beta (Homo sapiens, UniProt Q9UBF8). In words: Selectivity interaction (KinomeScan (DiscoverX)) EUB0000695a PI4KB. The note with it: at 100 nM.
Experiment [5] concerns the target T1, Serine/threonine-protein kinase LATS2 (Homo sapiens) (UniProt Q9NRM7).
T1 sequence (whole entry): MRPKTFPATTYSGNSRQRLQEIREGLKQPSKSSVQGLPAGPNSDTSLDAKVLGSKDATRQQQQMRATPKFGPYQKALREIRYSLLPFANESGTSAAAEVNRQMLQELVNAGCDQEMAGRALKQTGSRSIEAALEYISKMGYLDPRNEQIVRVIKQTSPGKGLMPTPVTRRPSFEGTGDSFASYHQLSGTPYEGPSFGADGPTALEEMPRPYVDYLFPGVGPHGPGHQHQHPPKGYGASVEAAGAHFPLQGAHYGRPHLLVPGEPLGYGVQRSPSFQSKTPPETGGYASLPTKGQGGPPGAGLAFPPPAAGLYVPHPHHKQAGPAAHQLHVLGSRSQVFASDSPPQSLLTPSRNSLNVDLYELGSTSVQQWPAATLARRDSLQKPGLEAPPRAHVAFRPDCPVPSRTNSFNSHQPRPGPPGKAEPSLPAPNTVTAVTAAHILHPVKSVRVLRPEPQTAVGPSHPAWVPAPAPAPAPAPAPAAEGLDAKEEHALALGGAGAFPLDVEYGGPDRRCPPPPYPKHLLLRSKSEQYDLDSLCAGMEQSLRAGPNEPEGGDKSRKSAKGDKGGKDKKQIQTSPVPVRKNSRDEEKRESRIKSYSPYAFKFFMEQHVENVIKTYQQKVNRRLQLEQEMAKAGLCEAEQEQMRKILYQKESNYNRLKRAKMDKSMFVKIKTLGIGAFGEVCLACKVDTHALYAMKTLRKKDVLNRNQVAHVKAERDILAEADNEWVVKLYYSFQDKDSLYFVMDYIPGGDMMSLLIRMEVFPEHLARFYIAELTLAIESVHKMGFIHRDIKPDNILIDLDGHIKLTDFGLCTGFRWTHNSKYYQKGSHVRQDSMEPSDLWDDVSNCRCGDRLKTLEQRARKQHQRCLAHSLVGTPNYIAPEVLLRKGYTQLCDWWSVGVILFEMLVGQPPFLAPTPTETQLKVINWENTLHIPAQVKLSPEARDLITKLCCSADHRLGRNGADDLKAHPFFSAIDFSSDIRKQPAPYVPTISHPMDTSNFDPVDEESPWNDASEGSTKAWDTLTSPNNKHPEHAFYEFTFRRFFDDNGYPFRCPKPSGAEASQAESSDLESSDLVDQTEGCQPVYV
In words: Selectivity interaction (KinomeScan (DiscoverX)) EUB0000666a LATS2. The note with it: at 10 µM.

In experiment [6] the target is Casein kinase I isoform delta (Homo sapiens, UniProt P48730). Put plainly: Selectivity interaction (KinomeScan (DiscoverX)) EUB0000666a CSNK1D. The note with it: at 10 µM.
In experiment [7] the target is Mast/stem cell growth factor receptor Kit (Homo sapiens, UniProt P10721). Put plainly: (§1) Selectivity interaction (SelectScreen profiling (Invitrogen)) EUB0000607a KIT. The note with it: at 2 µM.
Mast/stem cell growth factor receptor Kit, sequence (P10721 whole entry): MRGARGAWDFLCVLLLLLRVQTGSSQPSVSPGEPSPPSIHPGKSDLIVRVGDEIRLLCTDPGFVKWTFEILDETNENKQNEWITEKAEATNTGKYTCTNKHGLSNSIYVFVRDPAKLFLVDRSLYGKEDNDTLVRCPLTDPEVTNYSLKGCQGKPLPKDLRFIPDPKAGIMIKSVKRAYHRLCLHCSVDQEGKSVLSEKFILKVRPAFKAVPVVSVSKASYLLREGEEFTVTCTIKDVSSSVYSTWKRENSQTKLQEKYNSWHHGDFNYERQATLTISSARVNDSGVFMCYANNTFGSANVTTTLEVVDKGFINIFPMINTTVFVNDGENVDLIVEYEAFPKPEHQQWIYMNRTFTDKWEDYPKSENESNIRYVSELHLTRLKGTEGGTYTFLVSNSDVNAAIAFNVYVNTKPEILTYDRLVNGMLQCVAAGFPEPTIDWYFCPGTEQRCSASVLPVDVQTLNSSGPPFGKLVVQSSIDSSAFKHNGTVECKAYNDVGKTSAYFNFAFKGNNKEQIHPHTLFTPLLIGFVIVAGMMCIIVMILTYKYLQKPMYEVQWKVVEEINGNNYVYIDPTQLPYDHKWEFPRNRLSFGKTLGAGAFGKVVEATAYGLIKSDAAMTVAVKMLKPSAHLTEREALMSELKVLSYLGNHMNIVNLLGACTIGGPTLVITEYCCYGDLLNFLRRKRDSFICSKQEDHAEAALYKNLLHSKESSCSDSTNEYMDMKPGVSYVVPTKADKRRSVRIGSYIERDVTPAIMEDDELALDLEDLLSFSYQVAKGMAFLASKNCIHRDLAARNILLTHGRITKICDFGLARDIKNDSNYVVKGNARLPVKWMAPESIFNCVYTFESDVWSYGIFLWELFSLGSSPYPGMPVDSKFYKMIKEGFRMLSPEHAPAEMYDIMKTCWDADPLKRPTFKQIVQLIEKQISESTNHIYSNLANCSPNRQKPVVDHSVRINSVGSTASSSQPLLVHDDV
Experiment [8] relates to Mast/stem cell growth factor receptor Kit (Homo sapiens), P10721 [T670I]. The description is as §1. To be noted: at 2 µM.
Mast/stem cell growth factor receptor Kit (Homo sapiens), P10721 [T670I], sequence (P10721 whole entry T670I): as the sequence (P10721 whole entry) above, with T670I counted along it
For experiment [9], the target named is Tyrosine-protein kinase Fes/Fps (Homo sapiens) (UniProt P07332). In words: Selectivity interaction (ActivX KiNativ screen (kinase selectivity in THP-1 cell lysates)) EUB0000639a FES. It counts as subcellular. To be noted: lysate.
Tyrosine-protein kinase Fes/Fps (Homo sapiens), sequence (P07332 whole entry): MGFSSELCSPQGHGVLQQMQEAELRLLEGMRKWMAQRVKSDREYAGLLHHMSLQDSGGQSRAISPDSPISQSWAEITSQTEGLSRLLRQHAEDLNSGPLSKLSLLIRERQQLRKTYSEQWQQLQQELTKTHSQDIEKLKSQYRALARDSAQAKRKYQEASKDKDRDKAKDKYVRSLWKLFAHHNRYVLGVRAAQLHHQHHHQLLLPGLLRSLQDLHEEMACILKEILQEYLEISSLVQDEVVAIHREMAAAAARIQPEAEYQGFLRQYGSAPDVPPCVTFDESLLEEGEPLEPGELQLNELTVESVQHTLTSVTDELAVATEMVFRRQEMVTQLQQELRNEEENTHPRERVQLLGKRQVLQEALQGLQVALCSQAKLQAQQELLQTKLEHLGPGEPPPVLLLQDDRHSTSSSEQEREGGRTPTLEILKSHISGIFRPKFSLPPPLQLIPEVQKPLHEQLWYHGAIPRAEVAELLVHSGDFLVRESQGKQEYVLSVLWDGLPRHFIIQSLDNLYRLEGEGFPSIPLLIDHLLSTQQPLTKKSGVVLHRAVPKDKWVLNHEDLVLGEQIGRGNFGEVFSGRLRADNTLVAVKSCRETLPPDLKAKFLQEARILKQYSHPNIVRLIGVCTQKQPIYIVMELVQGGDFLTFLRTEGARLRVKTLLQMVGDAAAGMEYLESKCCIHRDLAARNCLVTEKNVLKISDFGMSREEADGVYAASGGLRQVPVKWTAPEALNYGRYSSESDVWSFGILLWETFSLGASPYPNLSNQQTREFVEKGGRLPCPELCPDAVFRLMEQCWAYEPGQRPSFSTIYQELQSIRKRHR
Experiment [10] has as its target Serine/threonine-protein kinase N1 (Homo sapiens, UniProt Q16512). Put plainly: Selectivity interaction (ActivX KiNativ screen (kinase selectivity in THP-1 cell lysates)) EUB0000639a PKN1. It counts as subcellular. To be noted: lysate, at 0.01 µM.
Experiment [11] has as its target Serine/threonine-protein kinase Chk2 (Homo sapiens) (UniProt O96017). Put plainly: Selectivity interaction (ActivX KiNativ screen (kinase selectivity in THP-1 cell lysates)) EUB0000639a CHEK2. The note with it: lysate, at 1 µM. It is filed as subcellular.
Experiment [12] has as its target Serine/threonine-protein kinase 24 (Homo sapiens) (UniProt Q9Y6E0). In words: Selectivity interaction (ActivX KiNativ screen (ex vivo kinase selectivity in human PBMCs)) EUB0001619a STK24. It counts as cell-based. The note with it: PBMC, at 1 µM.
In experiment [13] the target is Serine/threonine-protein kinase/endoribonuclease IRE1 (Homo sapiens) (UniProt O75460). Put plainly: Selectivity interaction (ActivX KiNativ screen (ex vivo kinase selectivity in human PBMCs)) EUB0001619a ERN1. It counts as cell-based. To be noted: PBMC, at 1 µM.
Serine/threonine-protein kinase/endoribonuclease IRE1 (Homo sapiens), sequence (O75460 19-977 limits assumed): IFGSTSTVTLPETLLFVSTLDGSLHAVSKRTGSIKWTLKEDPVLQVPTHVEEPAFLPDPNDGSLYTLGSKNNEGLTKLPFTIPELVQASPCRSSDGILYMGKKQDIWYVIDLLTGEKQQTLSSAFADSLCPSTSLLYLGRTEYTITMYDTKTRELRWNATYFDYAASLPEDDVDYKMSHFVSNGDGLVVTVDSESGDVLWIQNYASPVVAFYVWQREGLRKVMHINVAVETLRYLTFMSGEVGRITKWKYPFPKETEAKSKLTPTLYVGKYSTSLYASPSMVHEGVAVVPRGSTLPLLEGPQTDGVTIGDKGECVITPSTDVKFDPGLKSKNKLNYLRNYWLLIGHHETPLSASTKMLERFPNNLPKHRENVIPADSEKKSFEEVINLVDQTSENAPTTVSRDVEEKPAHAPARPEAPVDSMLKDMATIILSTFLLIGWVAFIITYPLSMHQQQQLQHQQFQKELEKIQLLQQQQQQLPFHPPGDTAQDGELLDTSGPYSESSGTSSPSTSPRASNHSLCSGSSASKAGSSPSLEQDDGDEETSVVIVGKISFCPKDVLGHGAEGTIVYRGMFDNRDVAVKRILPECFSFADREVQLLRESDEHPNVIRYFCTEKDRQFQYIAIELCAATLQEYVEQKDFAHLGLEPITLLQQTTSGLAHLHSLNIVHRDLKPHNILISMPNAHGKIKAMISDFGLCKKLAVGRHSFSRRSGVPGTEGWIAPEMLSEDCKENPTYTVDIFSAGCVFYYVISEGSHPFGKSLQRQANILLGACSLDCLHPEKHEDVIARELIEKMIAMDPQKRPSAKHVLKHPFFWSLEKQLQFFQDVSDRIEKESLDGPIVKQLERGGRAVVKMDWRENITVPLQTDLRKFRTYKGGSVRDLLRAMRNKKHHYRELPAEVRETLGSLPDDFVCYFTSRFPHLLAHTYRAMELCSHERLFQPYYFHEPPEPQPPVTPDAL
For experiment [14], the target named is T2, Aurora kinase A (Homo sapiens) (UniProt O14965).
T2 sequence (whole entry): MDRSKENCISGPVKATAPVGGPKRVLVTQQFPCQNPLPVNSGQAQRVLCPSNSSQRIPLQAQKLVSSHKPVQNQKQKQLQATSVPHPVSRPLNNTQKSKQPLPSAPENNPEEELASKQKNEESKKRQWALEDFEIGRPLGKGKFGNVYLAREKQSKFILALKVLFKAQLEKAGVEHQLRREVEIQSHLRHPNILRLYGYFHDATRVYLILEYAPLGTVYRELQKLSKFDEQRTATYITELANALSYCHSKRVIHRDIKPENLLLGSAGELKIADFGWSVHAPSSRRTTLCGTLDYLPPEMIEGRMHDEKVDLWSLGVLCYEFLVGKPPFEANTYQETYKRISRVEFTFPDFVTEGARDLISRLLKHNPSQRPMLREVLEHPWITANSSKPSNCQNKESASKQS
In words: Selectivity interaction (KinomeScan (DiscoverX)) EUB0000618a STK6. The note with it: at 10 µM.

Serine/threonine-protein kinase Chk2 (Homo sapiens), sequence (O96017 whole entry): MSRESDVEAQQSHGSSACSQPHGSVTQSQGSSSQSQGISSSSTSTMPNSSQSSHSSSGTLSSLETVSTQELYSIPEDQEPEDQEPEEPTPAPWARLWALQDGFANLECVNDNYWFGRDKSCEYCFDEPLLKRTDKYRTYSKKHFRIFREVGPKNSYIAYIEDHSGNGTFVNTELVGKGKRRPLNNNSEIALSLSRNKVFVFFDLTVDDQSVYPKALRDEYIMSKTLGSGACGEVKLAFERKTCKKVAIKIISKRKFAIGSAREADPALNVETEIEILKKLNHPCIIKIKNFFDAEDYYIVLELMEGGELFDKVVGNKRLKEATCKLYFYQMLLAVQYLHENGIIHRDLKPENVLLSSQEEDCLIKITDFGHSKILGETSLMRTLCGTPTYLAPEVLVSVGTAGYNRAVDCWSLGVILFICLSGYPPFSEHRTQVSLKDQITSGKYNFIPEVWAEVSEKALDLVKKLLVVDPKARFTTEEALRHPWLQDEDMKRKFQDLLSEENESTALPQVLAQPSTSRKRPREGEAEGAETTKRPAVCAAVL
Cyclin-dependent kinase 3 (Homo sapiens), sequence (Q00526 whole entry, looked up): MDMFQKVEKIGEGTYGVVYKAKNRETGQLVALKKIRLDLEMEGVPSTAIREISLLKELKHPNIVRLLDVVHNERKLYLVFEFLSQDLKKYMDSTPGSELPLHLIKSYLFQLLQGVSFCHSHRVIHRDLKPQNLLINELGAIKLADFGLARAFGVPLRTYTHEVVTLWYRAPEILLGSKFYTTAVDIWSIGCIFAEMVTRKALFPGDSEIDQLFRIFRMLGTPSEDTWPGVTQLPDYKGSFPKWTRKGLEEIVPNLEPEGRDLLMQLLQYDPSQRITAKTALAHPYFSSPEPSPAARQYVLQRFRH
Phosphatidylinositol 4-kinase beta, sequence (Q9UBF8 2-816 limits assumed): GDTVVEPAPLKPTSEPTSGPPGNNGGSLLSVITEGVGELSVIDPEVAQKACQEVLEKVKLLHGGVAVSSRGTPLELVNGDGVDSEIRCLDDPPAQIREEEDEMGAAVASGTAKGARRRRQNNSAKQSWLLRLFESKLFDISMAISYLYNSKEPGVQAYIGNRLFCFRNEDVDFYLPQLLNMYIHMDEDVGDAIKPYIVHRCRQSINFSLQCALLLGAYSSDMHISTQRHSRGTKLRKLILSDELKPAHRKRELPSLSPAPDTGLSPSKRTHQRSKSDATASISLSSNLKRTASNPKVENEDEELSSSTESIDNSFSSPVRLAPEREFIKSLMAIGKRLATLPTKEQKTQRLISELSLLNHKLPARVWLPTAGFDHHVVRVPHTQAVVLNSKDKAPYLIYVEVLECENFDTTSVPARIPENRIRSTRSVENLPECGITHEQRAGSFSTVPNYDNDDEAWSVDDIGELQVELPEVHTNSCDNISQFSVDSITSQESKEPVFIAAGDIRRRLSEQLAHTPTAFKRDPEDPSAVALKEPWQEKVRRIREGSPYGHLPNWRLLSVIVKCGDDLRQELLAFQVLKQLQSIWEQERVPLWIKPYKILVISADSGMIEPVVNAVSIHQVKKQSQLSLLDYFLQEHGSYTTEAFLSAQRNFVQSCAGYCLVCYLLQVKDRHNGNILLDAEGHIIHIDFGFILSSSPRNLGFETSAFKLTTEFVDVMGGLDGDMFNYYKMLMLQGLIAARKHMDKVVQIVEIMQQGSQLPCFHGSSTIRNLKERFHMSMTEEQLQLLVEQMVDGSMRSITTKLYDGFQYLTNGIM

As for `CN(C)C/C=C/C(=O)Nc1ccc(C(=O)N2CCCC(Nc3ncc(Cl)c(-c4c[nH]c5ccccc45)n3)C2)cc1` (stereo not drawn), the % of control was 97% in experiment [1] and 100% in [2].

Take `COc1cc(Nc2nc(C)cc(-c3cnn4nc(OC)ccc34)n2)cc(C(F)(F)F)c1`: the % of control in [3] amounted to 89%.

In turn, `Cc1cc(F)c(C(=O)Nc2cccc(-c3nncn3C(C)C)n2)cc1-n1cnc(C2CC2)c1` registered a % of control in [4] of 100%.

Regarding `O=C(NOC[C@H](O)CO)c1ccc(F)c(F)c1Nc1ccc(I)cc1F`, the % of control stood at 74% in experiment [5] and 100% in experiment [6].

In the case of `CNC(=O)Nc1ccc(-c2nc(N3CC4CCC(C3)O4)c3cnn(C4CCC5(CC4)OCCO5)c3n2)cc1`, the figures for the % of inhibition in [7] and in experiment [8] were 10% and 7%, respectively.

In the case of `CC[C@@H]1[C@H](F)C(=O)N[C@@H]1COc1nccc2cc(C(N)=O)c(OC)cc12` [ZIMLOVISERTIB], the % of inhibition is 0.3% in experiment [9] (at 0.01 µM); 2.2% in experiment [9] (at 0.04 µM); 5.7% in [9] (at 0.2 µM); 0.6% in [9] (at 1 µM); -23.7% in experiment [9] (at 5 µM); -9.7% in experiment [10]. In addition, the % of inhibition in experiment [11] stood at 22.6%.

Regarding `N#Cc1cccc(-c2c[nH]c3ncnc(N4CCOCC4)c23)c1`, the % of inhibition is 46% in [12] and 2% in [13].

On to `O[C@H]1CC[C@H](Nc2ncc3nc(Nc4c(F)cc(F)cc4F)n([C@H]4CCOC4)c3n2)CC1`, for which, in [14], the % of control came to 91%.
